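Briefly, cells in 96-well plates were exposed to five compound concentrations for 48 h, and endpoints were estimated by linear interpolation. Abbreviation: GI50, concentration required for 50% inhibition of growth.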 Active and inactive are the calls of the source. No stated cut-off is given here; in the data, active = GI50 up to about 1.1 µM and inactive = higher.

Some test systems named below: MOLT-4; SW-620; T47D; K562; SK-OV-3; SF-268; IGROV-1; MDA-MB-231; MCF7; Malme-3M; HCT-116; RXF 393; MDA-N; LOX IMVI; SF-539; U-251; M14; A498; SK-MEL-5; OVCAR-4.
Holding throughout (assay): NCI tumour cell line growth inhibition, 48 h

Consider `Cn1c(COC(=O)Nc2ccccc2)c(COC(=O)Nc2ccccc2)c2ccc3cc(Cl)c(Cl)cc3c21`, for which the GI50 in the assay on MOLT-4 was 1.1 µM (active); with SW-620 it was 2.69 µM (inactive); in the assay on T47D, 1.53 µM (inactive); in the assay with K562, 1.07 µM (active); in the assay on SK-OV-3 it was 20.9 µM (inactive); with SF-268, 3.57 µM (inactive). Moreover, the GI50 in the assay with IGROV-1 was 8.95 µM (inactive); in the assay on MDA-MB-231 it was 3.33 µM (inactive); in the assay on MCF7, 2.14 µM (inactive); with Malme-3M it was 1.74 µM (inactive); with HCT-116, 9.66 µM (inactive); in the assay with RXF 393, 9.64 µM (inactive). Moreover, the GI50 in the assay with MDA-N was 8.07 µM (inactive); in the assay with LOX IMVI, 2.52 µM (inactive); in the assay on SF-539, 10.8 µM (inactive); with U-251, 1.95 µM (inactive); in the assay on M14, 7.71 µM (inactive); with A498, 1.65 µM (inactive). Further, the GI50 with SK-MEL-5 is 4.62 µM (inactive).

Regarding `COc1c(-c2cc(C)c(Cl)c(=O)[nH]2)c(O)c(OC)c2occc12`, the GI50 in the assay with OVCAR-4, in the assay on MOLT-4, in the assay with SW-620, with T47D, in the assay with K562 and in the assay on SK-OV-3 was > 100 µM (inactive) throughout. Further, the GI50 in the assay on SF-268 is 97.1 µM (inactive); in the assay on IGROV-1, > 100 µM (inactive); in the assay with MDA-MB-231 it was 75.9 µM (inactive); with MCF7, > 100 µM (inactive); in the assay on Malme-3M, > 100 µM (inactive); in the assay with HCT-116, > 100 µM (inactive). The GI50 in the assay on RXF 393 was 52.2 µM (inactive); with MDA-N it was > 100 µM (inactive); in the assay with LOX IMVI it was > 100 µM (inactive); with SF-539 it was > 100 µM (inactive); with U-251, > 100 µM (inactive); in the assay with M14 it was > 100 µM (inactive). Besides, the GI50 in the assay on SK-MEL-5 was 78.3 µM (inactive).

For `O=C(O)c1ccccc1CC1Cc2ccccc2C1=O` (centres undefined), the GI50 in the assay with OVCAR-4, in the assay with MOLT-4, in the assay on SW-620, in the assay with T47D, in the assay with K562 and in the assay with SK-OV-3 was > 100 µM (inactive) in each case. Further, the GI50 with SF-268, in the assay with IGROV-1, in the assay with MDA-MB-231, in the assay with MCF7, in the assay on Malme-3M and in the assay on HCT-116 was > 100 µM (inactive) each time. The GI50 in the assay on RXF 393, with MDA-N, in the assay with LOX IMVI, in the assay with SF-539, with U-251 and in the assay with M14 was > 100 µM (inactive) each time. In the assay with SK-MEL-5, the GI50 was > 100 µM (inactive).

As for `Cc1nc(-c2cc3cc(Cl)ccc3oc2=O)cc2c1c(=O)oc1ccc(Cl)cc12`, the GI50 with MOLT-4, with SW-620, in the assay on T47D, in the assay on K562, in the assay on SK-OV-3 and in the assay on SF-268 was > 100 µM (inactive) in each case. Besides, the GI50 in the assay with IGROV-1, in the assay with MDA-MB-231, in the assay on MCF7, in the assay on HCT-116, in the assay on RXF 393 and in the assay with MDA-N was > 100 µM (inactive) in each case. Further, the GI50 in the assay with LOX IMVI, in the assay on U-251, in the assay with M14, in the assay on A498 and in the assay on SK-MEL-5 was > 100 µM (inactive) in each case.

As to `Cc1cc(C)n(-c2nc3ccccc3c(=O)[nH]2)n1`, the GI50 with OVCAR-4 was 56.6 µM (inactive); in the assay on MOLT-4 it was 1.6 µM (inactive); in the assay with SW-620, 3.28 µM (inactive); in the assay on T47D it was 11 µM (inactive); with K562 it was 1.64 µM (inactive); in the assay with SK-OV-3, 8.65 µM (inactive). Also, the GI50 was 4.1 µM (inactive) in the assay with SF-268; 1.5 µM (inactive) in the assay with IGROV-1; 11 µM (inactive) with MDA-MB-231; 3.78 µM (inactive) in the assay on MCF7; 1.88 µM (inactive) in the assay with HCT-116; 32.6 µM (inactive) with MDA-N. Moreover, the GI50 is 1.41 µM (inactive) in the assay on LOX IMVI; 4.4 µM (inactive) in the assay on SF-539; 3.24 µM (inactive) with U-251; 3.75 µM (inactive) in the assay with M14; 23.2 µM (inactive) with A498; 2.64 µM (inactive) in the assay with SK-MEL-5.

Turning to `N#CC(=N)c1ncn(-c2ccc(N)cc2)c1N`, the GI50 in the assay on OVCAR-4, in the assay with MOLT-4, in the assay with SW-620, with T47D, with K562 and in the assay on SK-OV-3 was > 100 µM (inactive) each time. For the same compound, the GI50 in the assay with SF-268, in the assay with IGROV-1, with MDA-MB-231, in the assay with MCF7, in the assay with Malme-3M and in the assay on HCT-116 was > 100 µM (inactive) throughout. The GI50 in the assay on MDA-N, in the assay on LOX IMVI, in the assay on SF-539, in the assay with U-251, in the assay with M14 and with A498 was > 100 µM (inactive) each time. Further, the GI50 in the assay with SK-MEL-5 is > 100 µM (inactive).

Consider `CC1C(NNc2ccccc2)Oc2cc3c(cc2C1c1ccccc1O)OCO3` (centres undefined), for which the GI50 in the assay on MOLT-4 was 3.17 µM (inactive); in the assay on SW-620 it was 13.7 µM (inactive); in the assay with T47D, 2.77 µM (inactive); in the assay with K562, 0.444 µM (active); in the assay on SK-OV-3 it was 10.5 µM (inactive); with SF-268, 12.2 µM (inactive). The GI50 in the assay with IGROV-1 was 1.7 µM (inactive); in the assay with MDA-MB-231, 13.4 µM (inactive); in the assay with MCF7, 3.94 µM (inactive); in the assay with Malme-3M it was 3.47 µM (inactive); in the assay with HCT-116 it was 4.69 µM (inactive); in the assay on RXF 393, 15.7 µM (inactive). Besides, the GI50 with MDA-N is 4.06 µM (inactive); in the assay with LOX IMVI it was 12.5 µM (inactive); in the assay on SF-539, 2.01 µM (inactive); with U-251, 10.1 µM (inactive); in the assay with M14, 1.93 µM (inactive); in the assay with A498, 15.7 µM (inactive). The GI50 in the assay with SK-MEL-5 was 11.6 µM (inactive).

Turning to `O=c1[nH]c(Nc2cccc(C(F)(F)F)c2)nc2[nH]cnc12`, the GI50 with OVCAR-4 is 94.2 µM (inactive); in the assay on MOLT-4, > 100 µM (inactive); in the assay with SW-620, > 100 µM (inactive); in the assay with T47D, > 100 µM (inactive); in the assay with K562, > 100 µM (inactive); with SK-OV-3, > 100 µM (inactive). Also, the GI50 was > 100 µM (inactive) in the assay with SF-268; > 100 µM (inactive) in the assay with IGROV-1; > 100 µM (inactive) with MDA-MB-231; > 100 µM (inactive) with MCF7; > 100 µM (inactive) with Malme-3M; 80 µM (inactive) with HCT-116. Besides, the GI50 was > 100 µM (inactive) with RXF 393; 82.2 µM (inactive) in the assay with MDA-N; > 100 µM (inactive) in the assay on LOX IMVI; > 100 µM (inactive) in the assay on SF-539; > 100 µM (inactive) in the assay on U-251; > 100 µM (inactive) with M14. For the same compound, the GI50 in the assay on SK-MEL-5 was 40.1 µM (inactive).

Source of the values: ChEMBL document CHEMBL1201862, “PubChem BioAssay data set” (2004).
